Earlier results on one substance are cited in patent publication US20240109972A1, “ANTIBODY AND TAXANE COMBINATION THERAPY” (Genmab A/S, priority 2020, published 2024).

This data set relates to cervical cancer. The following applies: first-line, combined with paclitaxel and platinum (cisplatin or carboplatin) or paclitaxel and topotecan; cited from earlier work.

In the case of bevacizumab, the “Median OS” value is “approximately 18 months” and the ORR was 48%.
